Results from patent publication US6268380A, “Urea derivatives useful as platelet aggregation inhibitors” (G. D. Searle & Co., priority 1993, dated 2001).
pIC50: −log10 of the molar value.

Experiments:
[1] = test system: ex vivo collagen induced platelet aggregation; assay: Inhibition of ex vivo collagen induced aggregation (compound administered to dogs); design: species or system dog (Beagles); key: *: not active at the dose tested; details: intragastric (IG) administration to dogs; collagen induced aggregation in PRP ex vivo; dose not given
Description: The purpose of this assay is to determine the effects of antiplatelet compounds on ex vivo collagen induced platelet aggregation when administered either intravenously or orally to dogs.
Pretreatment (control) blood samples are drawn from either conscious or anesthetized dogs (Beagles) and centrifuged to prepare platelet rich plasma (PRP). Aggregatory response to collagen is measured in a aggregometer and used as Control. Compounds are administered, either intragasterically (either by capsule or stomach tube or intravenously). Blood samples are drawn at predetermined intervals after compound administration, PRP prepared and aggregation to collagen determined. Compound inhibition of aggregation is determined by comparing the aggregation response after compound administration to the pretreatment response.

[2] = test system: platelet aggregation in Dog PRP; assay: In-Vitro Platelet Aggregation in PRP (ADP induced); assay type: cell-based; details: Canis lupus familiaris, ADP 50 um final concentration
Description: Healthy male or female dogs were fasted for 8 hours prior to drawing blood; then 30 ml whole blood was collected using a butterfly needle and 30 cc plastic syringe with 3 ml of 0.129 M buffered sodium citrate (3.8%). The syringe was rotated carefully as blood was drawn to mix the citrate. Platelet-rich plasma (PRP) was prepared by centrifugation at 975×g for 3.17 minutes at room temperature allowing the centrifuge to coast to a stop without braking. The PRP was removed from the blood with a plastic pipette and placed in a plastic capped, 50 mL Corning conical sterile centrifuge tube which was held at room temperature. Platelet poor plasma (PPP) was prepared by centrifuging the remaining blood at 2000×g for 15 minutes at room temperature allowing the centrifuge to coast to a stop without braking. The PRP was adjusted with PPP to a count of 2-3×10^8 platelets per mL. 400 uL of the PRP preparation and 50 uL of the compounds solution to be tested or saline were preincubated for 1 minute at 37° C. in a […].). 50 uL of adenosine 5' diphosphate (ADP) (50 um final concentration) was added to the cuvettes and the aggregation was monitored for 1 minute. All compounds are tested in duplicate. Results are calculated as follows: Percent of control=[(maximal OD minus initial OD of compound) divided by (maximal OD minus initial OD of control saline)]×100. The % inhibition=100-(percent of control).
The compounds tested and their median inhibitory concentrations (IC50) are recorded in Table I. IC50 's (dosage at which 50% of platelet aggregation is inhibited) were calculated by linear regression of the dose response curve.

With N=C(N)c1ccc(NC(=O)N2CCCC(C(=O)NC(CC(=O)O)c3cccnc3)C2)cc1 (stereo not drawn) [Example 2, β-[[N-3-[[[4-(aminoiminomethyl)phenyl]amino]carbonyl]piperidylcarbonyl]amino]-3-pyridinepropanoic acid] the “Ex Vivo Effect after IG Administration” value [1] was “*” and the pIC50 ([2]; 1 min, 37° C., aggregation monitored 1 minute) was 6.07.
N=C(N)c1ccc(NC(=O)N2CCC(C(=O)NC(CC(=O)O)c3cccnc3)CC2)cc1 (stereo not drawn) [Example 6, β-[[N-[[[4-(aminoiminomethyl)phenyl]amino]carbonyl]4-piperidylcarbonyl]amino]-3-pyridinepropanoic acid] was tested, and the inhibition at 1 µM ([2]; at 10^-6 M, read-out: Dog PRP % Inh.) was 19%.
With N=C(N)c1ccc(NC(=O)N2CCCC2C(=O)NC(CC(=O)O)c2cccnc2)cc1 (stereo not drawn) [Example 4, β-[[N-2-[[[4-(aminoiminomethyl)phenyl]amino]carbonyl]pyrrolidylcarbonyl]amino]-3-pyridinepropanoic acid] the inhibition at 10 µM ([2]; at 10^-5 M, read-out: Dog PRP % Inh.) was 30%.
